Experimental data as given in US12264158B2, “Protein kinase MKK4 inhibitors for promoting liver regeneration or reducing or preventing hepatocyte death” (HEPAREGENIX GMBH, priority 2018, dated 2025).

Key:
MEKK2 = biological target: T1, MEKK2 (Homo sapiens, UniProt Q9Y2U5); experiment: Radiometric protein kinase assay, MEKK2; assay type: biochemical; conditions: substrate Casein, ATP 0.2 μM; read-out: MEKK2, potency derived from IC50-values
T1 construct: purchased ProQinase #0583-0000-1
T1 sequence (Q9Y2U5 1-619): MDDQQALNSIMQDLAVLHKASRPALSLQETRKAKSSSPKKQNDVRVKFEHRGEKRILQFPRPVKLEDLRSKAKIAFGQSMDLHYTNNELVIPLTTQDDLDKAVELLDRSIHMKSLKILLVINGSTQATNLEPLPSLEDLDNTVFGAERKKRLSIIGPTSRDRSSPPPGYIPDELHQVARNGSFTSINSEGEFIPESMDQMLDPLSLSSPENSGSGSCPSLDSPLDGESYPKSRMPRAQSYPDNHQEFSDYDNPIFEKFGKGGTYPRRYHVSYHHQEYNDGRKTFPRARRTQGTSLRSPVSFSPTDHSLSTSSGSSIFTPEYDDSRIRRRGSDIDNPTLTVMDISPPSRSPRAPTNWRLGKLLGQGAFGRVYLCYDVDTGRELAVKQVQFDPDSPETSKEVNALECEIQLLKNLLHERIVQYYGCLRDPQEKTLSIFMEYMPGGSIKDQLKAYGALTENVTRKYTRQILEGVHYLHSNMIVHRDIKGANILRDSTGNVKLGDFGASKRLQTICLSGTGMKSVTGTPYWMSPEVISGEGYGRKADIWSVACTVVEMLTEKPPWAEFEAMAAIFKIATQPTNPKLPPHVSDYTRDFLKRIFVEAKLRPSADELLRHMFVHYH
Experimental: A radiometric protein kinase assay was used for measuring the kinase activity of the respective protein kinases. All kinase assays were performed in 96-well polypropylene plates. After the reactions were stopped, the assay mixtures were transferred to 96-well MSFC filter-plates (Millipore). The reaction mix was passed through the filter membrane by aspiration, the membrane was washed 3 times with 150 mM H3PO4, once with ethanol, dried and liquid scintillation cocktail was added. Radioactivity was determined by counting of the samples in a Microbeta multiwell scintillation counter (Wallac).

BRaf = BRaf (Homo sapiens, UniProt P15056); experiment: KINOMEscan competition binding assay, selectivity against off-target BRaf; conditions: concentration of 100 nM
Experimental: (§1) The assay was performed by combining three components: DNA-tagged kinase; immobilized ligand; and a test compound. The ability of the test compound to compete with the immobilized ligand was measured via quantitative PCR of the DNA tag. The technology is described in detail in Fabian, M. A. et al. A small molecule-kinase interaction map for clinical kinase inhibitors. Nat. […] M. W. et al. A quantitative analysis of kinase inhibitor selectivity, Nat.
(§2) The test compounds were provided as 10 mM stock solutions. The test solutions at indicated final concentrations were prepared at DiscoverX.

JNK1 = biological target: T2, JNK1 (Homo sapiens, UniProt P45983); experiment: KINOMEscan competition binding assay, selectivity against off-target JNK1; conditions: concentration of 100 nM
T2 construct: M1/Q384; host or cells: HEK-293
Experimental: as §1
(§3) For investigation of the affinity to MKK4, MKK7 and JNK1, the kinases were produced in HEK-293 cells and subsequently tagged with DNA for qPCR detection. […] The liganded beads were blocked with excess biotin and washed with blocking buffer (SEABLOCK™ (Pierce), 1% BSA, 0.05% TWEEN®20, 1 mM DTT) to remove unbound ligand and to reduce nonspecific binding. […] All reactions were performed in polystyrene 96-well plates in a final volume of 0.135 mL. […] The kinase concentration in the eluates was measured by qPCR.
as §2

MKK7 = biological target: T3, MKK7 (Homo sapiens, UniProt O14733); experiment: KINOMEscan competition binding assay, selectivity against off-target MKK7; conditions: concentration of 100 nM
T3 construct: M1/R419; host or cells: HEK-293
T3 sequence (O14733 1-419): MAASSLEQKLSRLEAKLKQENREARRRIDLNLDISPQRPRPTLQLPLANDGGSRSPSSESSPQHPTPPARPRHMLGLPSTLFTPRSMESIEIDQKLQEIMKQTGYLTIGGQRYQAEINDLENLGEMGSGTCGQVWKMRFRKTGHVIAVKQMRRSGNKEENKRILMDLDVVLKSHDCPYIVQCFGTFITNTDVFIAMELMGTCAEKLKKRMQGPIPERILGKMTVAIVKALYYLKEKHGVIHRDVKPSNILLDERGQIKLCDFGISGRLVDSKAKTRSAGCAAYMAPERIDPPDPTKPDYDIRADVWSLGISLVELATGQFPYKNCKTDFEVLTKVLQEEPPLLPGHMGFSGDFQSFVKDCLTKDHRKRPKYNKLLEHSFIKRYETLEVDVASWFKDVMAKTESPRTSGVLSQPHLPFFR
Experimental: as §1, §3, §2

MKK4 = biological target: T4, MKK4 (Homo sapiens, UniProt P45985); experiment: KINOMEscan competition binding assay, MKK4 potency; conditions: concentration of 100 nM
T4 construct: S84/D399; host or cells: HEK-293
T4 sequence (P45985 84-399): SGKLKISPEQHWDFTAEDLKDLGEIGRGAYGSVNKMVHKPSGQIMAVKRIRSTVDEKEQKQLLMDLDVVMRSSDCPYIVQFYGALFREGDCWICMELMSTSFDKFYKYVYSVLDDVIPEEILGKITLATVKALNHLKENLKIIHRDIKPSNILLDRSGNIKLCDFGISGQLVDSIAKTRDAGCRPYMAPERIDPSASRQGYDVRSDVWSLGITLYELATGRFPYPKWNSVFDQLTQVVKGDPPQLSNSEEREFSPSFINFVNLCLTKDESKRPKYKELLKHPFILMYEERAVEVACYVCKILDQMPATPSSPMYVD
Experimental: as §1, §3, §2

Chain of BRaf (P15056 whole entry): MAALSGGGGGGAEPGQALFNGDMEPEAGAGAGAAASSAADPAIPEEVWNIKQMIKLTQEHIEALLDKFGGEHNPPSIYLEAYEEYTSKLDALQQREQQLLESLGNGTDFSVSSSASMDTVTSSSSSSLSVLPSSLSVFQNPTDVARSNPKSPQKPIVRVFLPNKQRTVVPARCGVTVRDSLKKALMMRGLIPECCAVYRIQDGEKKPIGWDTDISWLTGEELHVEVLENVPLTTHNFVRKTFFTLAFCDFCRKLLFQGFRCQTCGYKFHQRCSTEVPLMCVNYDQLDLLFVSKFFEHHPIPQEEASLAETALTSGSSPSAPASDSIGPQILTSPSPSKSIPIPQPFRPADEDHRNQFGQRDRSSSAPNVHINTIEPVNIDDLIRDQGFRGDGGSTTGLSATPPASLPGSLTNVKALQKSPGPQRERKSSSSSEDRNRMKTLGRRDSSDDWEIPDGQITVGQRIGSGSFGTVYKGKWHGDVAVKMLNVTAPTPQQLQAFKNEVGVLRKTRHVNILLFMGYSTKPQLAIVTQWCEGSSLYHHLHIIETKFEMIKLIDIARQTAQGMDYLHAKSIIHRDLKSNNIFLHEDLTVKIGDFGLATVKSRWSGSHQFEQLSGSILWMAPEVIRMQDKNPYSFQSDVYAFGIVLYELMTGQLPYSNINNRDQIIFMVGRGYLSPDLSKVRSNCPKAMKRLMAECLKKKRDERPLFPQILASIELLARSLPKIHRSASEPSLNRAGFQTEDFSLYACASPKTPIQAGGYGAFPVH
T2 sequence (P45983 1-384 isoform P45983-2): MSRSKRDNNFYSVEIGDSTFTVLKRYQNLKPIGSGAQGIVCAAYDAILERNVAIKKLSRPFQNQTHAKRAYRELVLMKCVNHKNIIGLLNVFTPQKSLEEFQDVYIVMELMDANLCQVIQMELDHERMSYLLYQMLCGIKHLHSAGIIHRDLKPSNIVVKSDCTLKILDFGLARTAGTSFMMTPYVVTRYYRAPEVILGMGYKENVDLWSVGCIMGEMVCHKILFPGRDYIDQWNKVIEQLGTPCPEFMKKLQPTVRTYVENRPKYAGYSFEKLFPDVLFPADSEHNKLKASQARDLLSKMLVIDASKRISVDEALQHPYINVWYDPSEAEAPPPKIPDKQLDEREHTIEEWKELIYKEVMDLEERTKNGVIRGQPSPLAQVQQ

IC50 (MEKK2) [µM] | Selectivity vs. BRaf, ratio PoC(BRaf)/PoC(MKK4) (BRaf) | Selectivity vs. JNK1, ratio PoC(JNK1)/PoC(MKK4) (JNK1) | Selectivity vs. MKK7, ratio PoC(MKK7)/PoC(MKK4) (MKK7) | MKK4, residual percent of control binding (PoC) (MKK4) | Compound
> 10 | – | – | – | – | CCCS(=O)(=O)Nc1ccc(F)c(C(=O)c2n[nH]c3ncc(-c4ccc(F)cc4C)cc23)c1F [Example 4, N-(2,4-difluoro-3-(5-(4-fluoro-2-methylphenyl)-1H-pyrazo-lo[3,4-b]-pyri-dine-3-car-bonyl)-phenyl)-propane-1-sulfonamide]
> 10 | – | – | – | – | CCCS(=O)(=O)Nc1ccc(F)c(C(=O)c2n[nH]c3ncc(-c4ccc(OC)cc4Cl)cc23)c1F [Example 5, N-(3-(5-(2-chloro-4-methoxy-phenyl)-1H-pyrazolo[3,4-b]-pyridine-3-carbonyl)-2,4-difluorophenyl)propane-1-sulfonamide]
– | O (PoC(BRaf)/PoC(MKK4) < 3) | + (10 > PoC(JNK1)/PoC(MKK4) ≥ 3) | + (10 > PoC(MKK7)/PoC(MKK4) ≥ 3) | + (10 ≤ PoC < 30) | CCCS(=O)(=O)Nc1ccc(F)c(C(=O)c2n[nH]c3ncc(-c4ccc(Cl)c(C(F)(F)F)c4)cc23)c1F [Example 36, N-(3-(5-(4-chloro-3-(trifluoromethyl)phenyl)-1H-pyrazolo[3,4-13]-pyridine-3-carbonyl)-2,4-difluorophenyl)-propane-1-sulfonamide]
> 10 | – | – | – | – | Cc1cc(F)ccc1-c1cnc2[nH]nc(C(=O)c3cccc(NS(C)(=O)=O)c3F)c2c1 [Example 39, N-(2-fluoro-3-(5-(4-fluoro-2-methylphenyl)-1H-pyrazo-lo[3,4-b]pyridine-3-carbonyl)-phenyl)methanesulfonamide]
> 10 | – | – | – | – | CS(=O)(=O)Nc1cccc(C(=O)c2n[nH]c3ncc(-c4ccc5c(c4)OCCO5)cc23)c1F [Example 40, N-(3-(5-(2,3-dihydro-benzo-[b][1,4]dioxin-6-yl)-1H-pyrazolo[3,4-b]pyridine-3-carbonyl)-2-fluoro-phenyl)-methanesulfonamide]
> 10 | – | – | – | – | CCCCS(=O)(=O)Nc1cccc(C(=O)c2n[nH]c3ncc(-c4ccc(OC)cc4Cl)cc23)c1F [Example 41, N-(3-(5-(2-chloro-4-methoxy-phenyl)-1H-pyrazolo[3,4-b]pyridine-3-carbonyl)-2-fluorophenyl)-butane-1-sulfonamide]
> 10 | – | – | – | – | CCCCS(=O)(=O)Nc1cccc(C(=O)c2n[nH]c3ncc(-c4ccc(F)cc4C)cc23)c1F [Example 42, N-(2-fluoro-3-(5-(4-fluoro-2-methylphenyl)-1H-pyrazo-lo[3,4-b]pyridine-3-carbonyl)-phenyl)butane-1-sulfonamide]
– | + (10 > PoC(BRaf)/PoC(MKK4) ≥ 3) | + (10 > PoC(JNK1)/PoC(MKK4) ≥ 3) | + (10 > PoC(MKK7)/PoC(MKK4) ≥ 3) | + (10 ≤ PoC < 30) | CCCCS(=O)(=O)Nc1cccc(C(=O)c2n[nH]c3ncc(-c4ccc5c(c4)OCCO5)cc23)c1F [Example 43, N-(3-(5-(2,3-dihydro-benzo-[b][1,4]dioxin-6-yl)-1H-pyrazolo[3,4-b]-pyridine-3-carbonyl)-2-fluorophenyl)-butane-1-sulfonamide]
– | O (PoC(BRaf)/PoC(MKK4) < 3) | O (PoC(JNK1)/PoC(MKK4) < 3) | O (PoC(MKK7)/PoC(MKK4) < 3) | O (PoC ≥ 30) | CCCS(=O)(=O)Nc1ccc(F)c(NC(=O)c2n[nH]c3ncc(-c4ccc(Cl)cc4)cc23)c1F [Example 45, 5-(4-chlorophenyl)-N-(2,6-difluoro-3-(propylsulfonamido)phenyl)-1H-pyrazolo[3,4-b]pyridine-3-carboxamide]
– | O (PoC(BRaf)/PoC(MKK4) < 3) | O (PoC(JNK1)/PoC(MKK4) < 3) | O (PoC(MKK7)/PoC(MKK4) < 3) | O (PoC ≥ 30) | CCCS(=O)(=O)Nc1ccc(F)c(Sc2n[nH]c3ncc(-c4ccc(Cl)cc4)cc23)c1F [Example 46, N-(3-((5-(4-chlorophenyl)-1H-pyrazolo[3,4-b]pyridin-3-yl)thio)-2,4-difluorophenyl)propane-1-sulfonamide]
– | O (PoC(BRaf)/PoC(MKK4) < 3) | O (PoC(JNK1)/PoC(MKK4) < 3) | O (PoC(MKK7)/PoC(MKK4) < 3) | O (PoC ≥ 30) | CCCS(=O)(=O)Nc1ccc(F)c([S+]([O-])c2n[nH]c3ncc(-c4ccc(Cl)cc4)cc23)c1F (stereo not shown) [Example 47, N-(3-((5-(4-chlorophenyl)-1H-pyrazolo[3,4-b]pyridin-3-yl)sulfinyl)-2,4-difluorophenyl)propane-1-sulfonamide]
– | O (PoC(BRaf)/PoC(MKK4) < 3) | O (PoC(JNK1)/PoC(MKK4) < 3) | O (PoC(MKK7)/PoC(MKK4) < 3) | O (PoC ≥ 30) | CCCS(=O)(=O)Nc1ccc(F)c(S(=O)(=O)c2n[nH]c3ncc(-c4ccc(Cl)cc4)cc23)c1F [Example 48, N-(3-((5-(4-chlorophenyl)-1H-pyrazolo[3,4-b]pyridin-3-yl)sulfonyl)-2,4-difluorophenyl)propane-1-sulfonamide]
– | O (PoC(BRaf)/PoC(MKK4) < 3) | O (PoC(JNK1)/PoC(MKK4) < 3) | O (PoC(MKK7)/PoC(MKK4) < 3) | O (PoC ≥ 30) | CCCS(=O)(=O)Nc1ccc(F)c(Cc2n[nH]c3ncc(-c4ccc(Cl)cc4)cc23)c1F [Example 50, N-(3-((5-(4-chlorophenyl)-1H-pyrazolo[3,4-b]pyridin-3-yl)methyl)-2,4-difluorophenyl)propane-1-sulfonamide]
1 to 10 | – | – | – | – | CS(=O)(=O)Nc1ccc(F)c(C(=O)c2n[nH]c3ncc(-c4ccc(S(N)(=O)=O)cc4)cc23)c1F [Example 51b, 4-(3-(2,6-difluoro-3-(methylsulfonamido)benzoyl)-1H-pyrazolo[3,4-b]pyridin-5-yl) benzenesulfonamide]
1 to 10 | – | – | – | – | CCCCS(=O)(=O)Nc1ccc(F)c(C(=O)c2n[nH]c3ncc(-c4ccc(S(N)(=O)=O)cc4)cc23)c1F [Example 51c, 4-(3-(3-(butylsulfonamido)-2,6-difluorobenzoyl)-1H-pyrazolo[3,4-b]pyridin-5-yl) benzenesulfonamide]
1 to 10 | – | – | – | – | CCCS(=O)(=O)Nc1ccc(F)c(C(=O)c2n[nH]c3ncc(-c4ccc(NS(C)(=O)=O)cc4)cc23)c1F [Example 51g, N-(2,4-difluoro-3-(5-(4-(methylsulfonamido)phenyl)-1H-pyrazolo[3,4-b]pyridine-3-carbonyl)phenyl)propane-1-sulfonamide]
